This is an account of results in patent publication US9453051B2, “Cyclosporin derivatives” (priority 2011, dated 2016).

SMILES strings stand for the structures.

The test system of one series is NFAT. In words: Cellular NFAT-reporter-gene assay (GloResponse NFAT-RE-luc2P HEK293). It counts as cell-based. The following applies: Homo sapiens, HEK293, 16 h, read-out: NFAT-reporter-gene assay IC50. The text has this:
An antigen specific stimulation of the T-cell receptor causes the activation of transcription factors such as e.g. NFAT (nuclear factor of activated T cells). NFAT-activation is essential for the expression of interleukine-2 and therefore, for the proliferation of T-cells as part of the immune response. A stable NFAT-reporter-gene cell line enables the analysis of modulators of the NFAT-pathways and thus, the evaluation of the immunosuppressive effects of compounds.
The stably transfected reporter-gene cell line GloResponse NFAT-RE-luc2P HEK293 (promega Corp. USA) was cultivated in DMEM (10% FCS; 2 mM Glutamin; 200 μg/ml Hygromycin) and seeded on 96-well plates (200.000 cells/well). The compounds to be tested were either added to the cells in a 2-point-determination (5 μM and 10 μM) or an ICH-determination (concentration series 4.1 nM-1 μM). […] Immediately thereafter the cells were stimulated with 5 nM PMA and 2 μM ionomycin and incubated over 16 h (37° C.; cell incubator). This double stimulation simulates a T-cell receptor stimulation and causes a NFAT activation with subsequently expression of the luciferase-reporter-gene. The amount of luciferase was quantitatively determined after 16 h by measurement of the bioluminescence by Bright-Glo Luciferase-Assay-System (Promega Corp., USA). The averaged luciferase values of the vehicle treated (1% DMSO) and with PMA/ionomycin stimulated cells were used as positive control and reference value.

The test system of a further series is Jurkat cells. Put plainly: Determination of cell permeability in Jurkat cells (displacement of fluorescent CsA derivative, FACS). The following applies: FIG. 1; in comparison to CsA. The format is cell-based. The protocol:
Jurkat cells of the cell culture have been harvested and centrifuged. The medium has been discarded and the cells were washed once with RPM′ (without phenol red, 10% FCS, Hepes, gentamicin). The cells were re-suspended in a medium adjusted to a cell concentration of 1.0×10^5-3.0×10^5 cells/ml and subsequently incubated with a fluorescent CsA derivative (0.5 μM-2.0 μM) at 37° C., 5-10% CO2 and 100% humidity. The cells were then centrifuged, the medium discarded and the cell pellet was washed once with medium and the cells were resuspended in a new medium. Subsequently, the cells were incubated for a half hour to 4 hours with the corresponding concentration (0.01 μM to 100 μM) of the test compound to be analyzed and then centrifuged again. The medium was discarded; it was once washed with 1 ml PBS and suspended in 500 μl PBS. The analysis was carried out using FACS-measurement by quantification of the replaced fluorescent CsA-derivative. The reference (without inhibitor) was thereby set 100%.

The nature of series [1]: Determination of cell permeability in PAMPA cell membranes (Parallel Artificial Membrane Permeability Assay). The format is in vitro ADME. The settings on record: 500 μM, Hepes buffer pH 7.4, 16 hours, room temperature. The protocol: After an incubation of 16 hours at room temperature in a liquid chamber the optical density of the solution after filtration has been measured in a range of 250 to 500 nm in steps of 10 nm each. The percentage “Flux” has been calculated from the integral of the graph between 250 and 500 nm and standardized on the optical density determined in the parallel reaction without artificial membrane.
A general note: In PAMPA a lipid-coated filter parts donor from acceptor wells.

Series [2] concerns ovalbumin sensitized mice (BALB/c-strain). Put plainly: Asthma evaluations (ovalbumin sensitized mice). The format is in vivo. The following applies: 200 μg i.p. at days 7, 9 and 11. The procedure: By application of ovalbumin together with aluminium hydroxide an immune response to ovalbumin is provoked. The immune response may be traced using the immigrated T-helper cell population (CD4+) and the immigrated eosinophilic granulocytes. Female mice (BALB/c-strain) were sensitized by intraperitoneal (i.p.) application of 50 μg ovalbumin solved in phosphate buffer (PBS) ((OVA) plus 100 μl aluminium hydroxide) with a total volume of 200 μl per mouse on day 0. 100 μg OVA in PBS (50 μl total volume) was intranasal administered to the ovalbumin sensitized mice under mild anesthesia (isoflurane) at days 7-10. These animals were divided into groups which obtained in addition either 200 μg test compound in PBS (i.p.), only PBS (diluent) or no further additive (−) at days 7, 9 and 11. At day 12 all animals were sacrificed by CO2 exposition and cells of the bronchial tract were obtained by bronchial lavage (BAL) with threefold washing with 1 ml of cold PBS each using a cannula introduced into the trachea. The cells obtained by BAL were then stained twice (a) with Cy-chrome conjugated anti-mouse CD4 antibodies and (b) with FITC conjugated anti-mouse CD62L antibodies. Subsequently, the cells were analyzed by FACS. Effector/memory CD4^+ T-cells were differentiated as CD4^+/CD62L^− lymphocytes and eosinophilic cells using their stray light characteristics (FSC/CCS).

Another series is described as follows: in vitro. The settings on record: human, Caco-2, pH 7.4.
The next series has as its target calcineurin (Homo sapiens, UniProt P62937+P63098+Q08209). In words: Inhibition of the phosphatase activity of calcineurin (scintillation-proximity-assay, in presence of Cyp18).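 Note: calcineurin dephosphorylation of a ³³P-labelled RII phosphopeptide, captured on streptavidin-coated wells and read by scintillation counting, with uninhibited enzyme activity taken as 100%.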
The target of series [3] is recombinant human wild type Cyp18 (Cyp18 wt) (Homo sapiens, UniProt P62937). In words: biochemical.
recombinant human wild type Cyp18 (Cyp18 wt), sequence (P62937 whole entry): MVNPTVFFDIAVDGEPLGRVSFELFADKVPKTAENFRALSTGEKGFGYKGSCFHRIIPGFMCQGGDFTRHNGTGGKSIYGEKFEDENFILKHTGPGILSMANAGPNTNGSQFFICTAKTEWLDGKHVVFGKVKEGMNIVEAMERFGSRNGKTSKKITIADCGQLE
Experimental: The determination was performed on a UV/Vis spectrometer at 10° C. cuvette temperature, whereby the device is operated at 390 nm in kinetic-mode (measurement buffer: 35 mM HEPES/NaOH pH 7.8 (AppliChem A1069)). 0.58 nM recombinant human wild type Cyp18 (Cyp18 wt), 2.33 nM bovine serum albumin (BSA) and 1 mg/ml chymotrypsin (Merck) solved in 35 mM HEPES/NaOH pH 7.8 as well as different concentration of each test substance, where appropriate, were in the cuvette. The reaction was started with a stock solution of Suc-Ala-Ala-Pro-Phe-4-nitroanilide (Bachem, 10 mg/ml DMSO) as substrate so that a final substrate concentration of 32 μM resulted. The extinction-time-curves were evaluated after expiry of the fast phase of the reaction i.e. after approximately 60 seconds according to a rate equation of a first-order reaction.

In the case of `CC[C@@H]1NC(=O)[C@H]([C@H](O)[C@H](C)Cc2nc3ccc(C(=O)O)cc3[nH]2)N(C)C(=O)[C@H](C(C)C)N(C)C(=O)[C@H](CC(C)C)N(C)C(=O)[C@H](CC(C)C)N(C)C(=O)[C@@H](C)NC(=O)[C@H](C)NC(=O)[C@H](CC(C)C)N(C)C(=O)[C@H](C(C)C)NC(=O)[C@H](CC(C)C)N(C)C(=O)CN(C)C1=O` [Compound 5], the IC50 in the series with NFAT and at calcineurin was more than 10 µM in each case. The “Cell permeability in Jurkat cells” value in the series on Jurkat cells is reported as “not cell permeable”. Moreover, the “Cell permeability in PAMPA-cell membranes” value in series [1] is on record as 1.7 % flux. Also, the “Number of eosinophilic granulocytes (eosinophils) in bronchial lavage” value in series [2] (FIG. 3) is recorded as “reduced very significantly”. Besides, the “Number of eosinophilic granulocytes (eosinophils) in lung tissue” value in series [2] (FIG. 4) is “reduced very significantly”. For the same molecule, in series [2] (FIG. 5), the “Number of CD4 positive T-cells in bronchial lavage (BAL)” value is “reduced very significantly”. Moreover, the “Number of CD4 positive T-cells in the lung tissue” value in series [2] (FIG. 6) is listed as “reduced very significantly”. Moreover, in “in vitro”, the Papp A→B (commonly how fast a substance crosses the layer from the apical side) at 2 h, 5 μM stood at 0.17 ×10⁻⁶ cm/s. For the same molecule, the Papp B→A (as a rule, the apparent permeability from the basolateral to the apical side of a cell layer) at 2 h, 5 μM in the series “in vitro” was 0.13 ×10⁻⁶ cm/s.

For the molecule `CC[C@@H]1NC(=O)[C@H]([C@H](O)[C@H](C)Cc2nc3cc(NC(=N)N)ccc3[nH]2)N(C)C(=O)[C@H](C(C)C)N(C)C(=O)[C@H](CC(C)C)N(C)C(=O)[C@H](CC(C)C)N(C)C(=O)[C@@H](C)NC(=O)[C@H](C)NC(=O)[C@H](CC(C)C)N(C)C(=O)[C@H](C(C)C)NC(=O)[C@H](CC(C)C)N(C)C(=O)CN(C)C1=O` [Compound 46], the results for the IC50 (in the series with NFAT; in series [3]; at calcineurin) were more than 10 µM, 13.1 nM and 6.63 µM, respectively. In addition, in series [1], the “Cell permeability in PAMPA-cell membranes” value was 13.5 % flux. The Papp A→B at 2 h, 5 μM in the series “in vitro” came to 0.4 ×10⁻⁶ cm/s.
